Laboratory results: US12371454B2, “Cyclic peptide compound having Kras inhibitory action” (priority 2019, dated 2025)
Starred links: 1 amine or outer side, 2 acyl side, 3 side chain; linkers in the order of their positions; H or OH if unused. Positions of bridges follow the written chain, without caps; N, C: chain ends. Non-standard residues stand in square brackets, D forms with d. Residues, ends and D or L forms follow the SMILES beside them. *: point of attachment. hPhe(3-Cl-4-CF3) = N[C@@H](CCc1ccc(C(F)(F)F)c(Cl)c1)C(=O)O; NMePhe(4-CF3) = CN[C@@H](Cc1ccc(C(F)(F)F)cc1)C(=O)O; X25 = CN([C@@H](Cc1ccc(C(F)F)cc1)C(=O)[*:2])[*:1]; 3Oxa8azabicyclo(3.2.1)octane = C1CC2COCC1N2*; NMePhe(3-Cl) = CN[C@@H](Cc1cccc(Cl)c1)C(=O)O; NMePhe(4-Me) = CN[C@@H](Cc1ccc(C)cc1)C(=O)O; NMedβ3hAla = C[C@H](CC(=O)[*:2])N(C)[*:1]; NMeGly(cPent) = CN[C@H](C(=O)O)C1CCCC1; NMeCha = CN[C@@H](CC1CCCCC1)C(=O)O; NMeChg = CN[C@H](C(=O)O)C1CCCCC1; NMeI = CC[C@H](C)[C@H](NC)C(=O)O; NMeD = CN[C@@H](CC(=O)O)C(=O)O; NMeL = CN[C@@H](CC(C)C)C(=O)O; Chg = N[C@H](C(=O)O)C1CCCCC1; NMeNva = CCC[C@H](NC)C(=O)O; NMeV = CN[C@H](C(=O)O)C(C)C; NMeAbu = CC[C@H](NC)C(=O)O; NMeS = CN[C@@H](CO)C(=O)O; NMeA = CN[C@@H](C)C(=O)O; Piperidide = C1CCN(*)CC1; Ac5c = NC1(C(=O)O)CCCC1; Aze = O=C(O)[C@@H]1CCN1; Isopentyl = CC(C)CC*; Sar = CNCC(=O)O; Propyl = CCC*

Tests used:
[1] = tested on: Human pancreatic cancer cell line AsPC-1; assay: Measurement of AsPC-1 cell growth inhibition (AsPC-1 CGI); type: cell-based; details: 96 h
In short: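 AsPC-1 cells in 15% FBS RPMI-1640 were exposed to test compound for 96 hours at 37° C, with CellTiter-Glo as endpoint.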

[2] = target: T1, Kras and SOS1 (biotin-tagged human Kras loaded with GDP, His-tagged human SOS1) (Homo sapiens, UniProt P01116, G12D); assay: Protein-protein interaction inhibition between Kras and SOS1 (KrasGl2D-SOS PPI) using AlphaScreen; type: binding; details: AlphaScreen; biotin-tagged human Kras loaded with GDP, His-tagged human SOS1; read-out: KRAS G12D-SOS PPI IC50
T1 construct: made in house; host or cells: E. coli (stated for Kras only)
T1 sequence (P01116 1-188 isoform P01116-2 G12D): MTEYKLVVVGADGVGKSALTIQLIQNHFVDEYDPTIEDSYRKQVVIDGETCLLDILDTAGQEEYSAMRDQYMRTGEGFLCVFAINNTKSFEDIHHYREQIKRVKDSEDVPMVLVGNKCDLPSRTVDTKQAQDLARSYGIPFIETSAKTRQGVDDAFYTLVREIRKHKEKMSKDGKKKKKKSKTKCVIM
In short: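 AlphaScreen format: Ni donor beads capture His-SOS1, streptavidin acceptor beads capture biotinylated Kras (E. coli-expressed, GDP-loaded post-purification). Excite 680 nm, read 520-620 nm.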

SMILES	IC50 [1] [nM]	IC50 [2] [nM]
CCC[C@H]1C(=O)N[C@@H]([C@@H](C)CC)C(=O)N(C)CC(=O)N(C)CC(=O)N(C)[C@@H](Cc2ccc(C(F)(F)F)cc2)C(=O)N(C)CC(=O)N[C@@H](CCc2ccc(C(F)(F)F)c(Cl)c2)C(=O)N2CCC[C@H]2C(=O)NC2(CCCC2)C(=O)N(C)[C@@H](C2CCCCC2)C(=O)N(C)[C@H](C(=O)N2C3CCC2COC3)CC(=O)N1C [Compound 1983] ([NMeNva]I[Sar][Sar][NMePhe(4-CF3)][Sar][hPhe(3-Cl-4-CF3)]P[Ac5c][NMeChg][NMeD]-{3Oxa8azabicyclo(3.2.1)octane}; lactam N-11)	20 to 50	0.68
CC[C@H](C)[C@@H]1NC(=O)[C@H](CC(C)C)N(C)C(=O)C[C@@H](C(=O)N(C)C)N(C)C(=O)[C@H](C2CCCC2)N(C)C(=O)C2(CCCC2)NC(=O)[C@H](COCCC(C)C)N(C)C(=O)[C@H](CCc2ccc(C(F)(F)F)c(Cl)c2)NC(=O)CN(C)C(=O)[C@H](CC2CCCCC2)N(C)C(=O)[C@@H]2CCN2C(=O)[C@H](C)N(C)C1=O [Compound 250] ([NMeL]I[NMeA][Aze][NMeCha][Sar][hPhe(3-Cl-4-CF3)][NMeS](Isopentyl)[Ac5c][NMeGly(cPent)][NMeD]-NMe2; lactam N-11)	100 to 500	9.8
CCCOC[C@H]1C(=O)N[C@@H]([C@@H](C)CC)C(=O)N(C)CC(=O)N(C)CC(=O)N(C)[C@@H](CC2CCCCC2)C(=O)N(C)CC(=O)N[C@@H](CCc2ccc(C(F)(F)F)c(Cl)c2)C(=O)N2CCC[C@H]2C(=O)NC2(CCCC2)C(=O)N(C)[C@@H](C2CCCCC2)C(=O)N(C)[C@H](C(=O)N2CCCCC2)CC(=O)N1C [Compound 1668] ([NMeS](Propyl)I[Sar][Sar][NMeCha][Sar][hPhe(3-Cl-4-CF3)]P[Ac5c][NMeChg][NMeD]-Piperidide; lactam N-11)	50 to 100	0.85
CC[C@H](C)[C@@H]1NC(=O)[C@H](CC(C)C)N(C)C(=O)C[C@@H](C(=O)N(C)C)N(C)C(=O)[C@H]([C@@H](C)CC)N(C)C(=O)C2(CCCC2)NC(=O)[C@H](Cc2ccc(C(F)F)cc2)N(C)C(=O)[C@H](CCc2ccc(C(F)(F)F)c(Cl)c2)NC(=O)CN(C)C(=O)[C@H](Cc2ccc(C)cc2)N(C)C(=O)[C@@H]2CCN2C(=O)[C@H](C)N(C)C1=O [Compound 1930] ([NMeL]I[NMeA][Aze][NMePhe(4-Me)][Sar][hPhe(3-Cl-4-CF3)][X25][Ac5c][NMeI][NMeD]-NMe2; lactam N-11)	20 to 50	3.6
CC(C)C[C@H]1C(=O)N[C@@H](C2CCCCC2)C(=O)N(C)CC(=O)N(C)CC(=O)N(C)[C@@H](CC2CCCCC2)C(=O)N(C)CC(=O)N[C@@H](CCc2ccc(C(F)(F)F)c(Cl)c2)C(=O)N2CCC[C@H]2C(=O)NC2(CCCC2)C(=O)N(C)[C@@H](C2CCCCC2)C(=O)N(C)[C@H](C(=O)N2CCCCC2)CC(=O)N1C [Compound 552] ([NMeL][Chg][Sar][Sar][NMeCha][Sar][hPhe(3-Cl-4-CF3)]P[Ac5c][NMeChg][NMeD]-Piperidide; lactam N-11)	100 to 500	0.63
CC[C@H](C)[C@@H]1NC(=O)[C@H](CC)N(C)C(=O)C[C@@H](C(=O)N2CCCCC2)N(C)C(=O)[C@H](C2CCCCC2)N(C)C(=O)C2(CCCC2)NC(=O)[C@@H]2CCCN2C(=O)[C@H](CCc2ccc(C(F)(F)F)c(Cl)c2)NC(=O)CN(C)C(=O)[C@H](CC2CCCCC2)N(C)C(=O)CN(C)C(=O)CN(C)C1=O [Compound 1770] ([NMeAbu]I[Sar][Sar][NMeCha][Sar][hPhe(3-Cl-4-CF3)]P[Ac5c][NMeChg][NMeD]-Piperidide; lactam N-11)	50 to 100	0.71
CC[C@H](C)[C@@H]1NC(=O)[C@H](CC(C)C)N(C)C(=O)C[C@@H](C(=O)N2CCCCC2)N(C)C(=O)[C@H](C2CCCCC2)N(C)C(=O)C2(CCCC2)NC(=O)[C@@H]2CCCN2C(=O)[C@H](CCc2ccc(C(F)(F)F)c(Cl)c2)NC(=O)CN(C)C(=O)[C@H](CC2CCCCC2)N(C)C(=O)CN(C)C(=O)CNC1=O [Compound 1315] ([NMeL]IG[Sar][NMeCha][Sar][hPhe(3-Cl-4-CF3)]P[Ac5c][NMeChg][NMeD]-Piperidide; lactam N-11)	100 to 500	1
CC[C@H](C)[C@@H]1NC(=O)[C@H](CC(C)C)N(C)C(=O)C[C@@H](C)N(C)C(=O)[C@H](C(C)C)N(C)C(=O)C2(CCCC2)NC(=O)[C@@H]2CCCN2C(=O)[C@H](CCc2ccc(C(F)(F)F)c(Cl)c2)NC(=O)CN(C)C(=O)[C@H](Cc2cccc(Cl)c2)N(C)C(=O)CN(C)C(=O)CN(C)C1=O [Compound 1621] (cyclo([Ac5c][NMeV][NMedβ3hAla][NMeL]I[Sar][Sar][NMePhe(3-Cl)][Sar][hPhe(3-Cl-4-CF3)]P))	50 to 100	7.2
